Measurements from patent publication US20070149535A1, “Protein kinase inhibitors” (ONCALIS AG, priority 2004, published 2007).

Key:
Assay in all cases: Yeast growth assay, specificity profiling;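 on EGFR (L858R) growth restoration: Parenthesized + marks a result obtained in a different yeast background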
Format in all cases: cell-based
EphB4 = target: T1, EphB4 (Homo sapiens, UniProt P54760); set-up: key: “−” indicates no growth restoration i.e. no activity against the particular kinase; “+”, “++”, and “+++” indicate activity detected by restoration of growth, classified into three categories of potency; “+”, “++”, and “+++” indicate activity detected by restoration of growth, classified into three categories of potency; “+”, “++”, and “+++” indicate activity detected by restoration of growth, classified into three categories of potency; conditions: 7 concentrations between 0.2 and 100 μM
T1 construct: expressed in transfected cells; host or cells: yeast
T1 sequence (P54760 16-987): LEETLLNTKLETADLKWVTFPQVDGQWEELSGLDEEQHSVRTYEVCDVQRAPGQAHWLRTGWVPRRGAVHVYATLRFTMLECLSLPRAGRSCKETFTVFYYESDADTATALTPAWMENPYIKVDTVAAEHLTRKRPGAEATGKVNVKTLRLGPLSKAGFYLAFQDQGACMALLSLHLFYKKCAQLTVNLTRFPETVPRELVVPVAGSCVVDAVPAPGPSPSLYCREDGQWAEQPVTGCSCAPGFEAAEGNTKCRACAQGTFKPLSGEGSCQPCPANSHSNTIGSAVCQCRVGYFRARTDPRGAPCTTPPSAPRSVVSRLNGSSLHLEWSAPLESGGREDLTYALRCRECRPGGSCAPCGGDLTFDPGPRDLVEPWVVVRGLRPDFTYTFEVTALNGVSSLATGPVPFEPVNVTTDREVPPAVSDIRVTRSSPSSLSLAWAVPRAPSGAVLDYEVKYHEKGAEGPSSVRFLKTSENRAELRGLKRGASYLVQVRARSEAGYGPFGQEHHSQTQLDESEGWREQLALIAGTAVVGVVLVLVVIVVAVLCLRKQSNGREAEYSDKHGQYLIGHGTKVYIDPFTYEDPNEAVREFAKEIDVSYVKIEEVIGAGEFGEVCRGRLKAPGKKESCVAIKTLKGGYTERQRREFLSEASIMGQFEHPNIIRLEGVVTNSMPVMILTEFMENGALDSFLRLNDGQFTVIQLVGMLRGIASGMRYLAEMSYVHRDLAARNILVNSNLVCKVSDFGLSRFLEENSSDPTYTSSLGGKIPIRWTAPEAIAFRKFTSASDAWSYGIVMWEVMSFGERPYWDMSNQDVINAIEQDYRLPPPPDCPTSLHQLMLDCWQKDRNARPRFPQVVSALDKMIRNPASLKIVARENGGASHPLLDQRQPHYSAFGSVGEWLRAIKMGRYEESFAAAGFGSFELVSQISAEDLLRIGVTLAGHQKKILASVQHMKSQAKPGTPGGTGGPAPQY
Summary of the method: (§1)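 Yeast carrying the human RTK are shifted from glucose to galactose medium, inducing kinase expression that suppresses growth; inhibitors restore growth. Compounds are tested at 7 concentrations from 0.2 to 100 μM. Activity is scored −/+/++/+++ from the maximal growth restoration and the concentration at which it is reached.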

RET = target: T2, RET (Homo sapiens, UniProt P07949); set-up: key: “−” indicates no growth restoration i.e. no activity against the particular kinase; “+”, “++”, and “+++” indicate activity detected by restoration of growth, classified into three categories of potency; “+”, “++”, and “+++” indicate activity detected by restoration of growth, classified into three categories of potency; “+”, “++”, and “+++” indicate activity detected by restoration of growth, classified into three categories of potency; conditions: 7 concentrations between 0.2 and 100 μM
T2 construct: expressed in transfected cells; host or cells: yeast
Summary of the method: as §1

EGFR (L858R) = target: T3, EGFR (L858R) (Homo sapiens, UniProt P00533, L858R); set-up: key: (+) in a different yeast background; conditions: in a different yeast background;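 further: Parenthesized + marks a result obtained in a different yeast background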
T3 construct: expressed in transfected cells; host or cells: yeast
Protocol: Specificity Profiling: Yeast Growth Assay
The yeast growth assay was performed as described in “Method for the identification and/or validation of receptor tyrosine kinase inhibitors” PCT/CH03/00694 (2004/10/24), section “Modes for Carrying out the Invention, Experiment 1 and Experiment 2.
Briefly, yeast cells carrying plasmids with the RTK of interest were grown in glucose containing medium (repressing expression). The cultures were diluted into galactose containing medium, which induces the expression of the kinase. Expression of the kinase inhibits growth of the yeast cells, which allows for positive selection of kinase inhibitors restoring growth of cells. Compounds were titrated at 7 concentrations between 0.2 and 100 μM.
Specificity profiling of compounds, using the yeast growth assay method described above. “−” indicates no growth restoration i.e. no activity against the particular kinase, “+”, “++”, and “+++” indicate activity detected by restoration of growth, classified into three categories of potency according to the maximal level of growth restoration reached and the concentration at which the maximal growth restoration is reached.

T2 sequence (P07949 29-1114): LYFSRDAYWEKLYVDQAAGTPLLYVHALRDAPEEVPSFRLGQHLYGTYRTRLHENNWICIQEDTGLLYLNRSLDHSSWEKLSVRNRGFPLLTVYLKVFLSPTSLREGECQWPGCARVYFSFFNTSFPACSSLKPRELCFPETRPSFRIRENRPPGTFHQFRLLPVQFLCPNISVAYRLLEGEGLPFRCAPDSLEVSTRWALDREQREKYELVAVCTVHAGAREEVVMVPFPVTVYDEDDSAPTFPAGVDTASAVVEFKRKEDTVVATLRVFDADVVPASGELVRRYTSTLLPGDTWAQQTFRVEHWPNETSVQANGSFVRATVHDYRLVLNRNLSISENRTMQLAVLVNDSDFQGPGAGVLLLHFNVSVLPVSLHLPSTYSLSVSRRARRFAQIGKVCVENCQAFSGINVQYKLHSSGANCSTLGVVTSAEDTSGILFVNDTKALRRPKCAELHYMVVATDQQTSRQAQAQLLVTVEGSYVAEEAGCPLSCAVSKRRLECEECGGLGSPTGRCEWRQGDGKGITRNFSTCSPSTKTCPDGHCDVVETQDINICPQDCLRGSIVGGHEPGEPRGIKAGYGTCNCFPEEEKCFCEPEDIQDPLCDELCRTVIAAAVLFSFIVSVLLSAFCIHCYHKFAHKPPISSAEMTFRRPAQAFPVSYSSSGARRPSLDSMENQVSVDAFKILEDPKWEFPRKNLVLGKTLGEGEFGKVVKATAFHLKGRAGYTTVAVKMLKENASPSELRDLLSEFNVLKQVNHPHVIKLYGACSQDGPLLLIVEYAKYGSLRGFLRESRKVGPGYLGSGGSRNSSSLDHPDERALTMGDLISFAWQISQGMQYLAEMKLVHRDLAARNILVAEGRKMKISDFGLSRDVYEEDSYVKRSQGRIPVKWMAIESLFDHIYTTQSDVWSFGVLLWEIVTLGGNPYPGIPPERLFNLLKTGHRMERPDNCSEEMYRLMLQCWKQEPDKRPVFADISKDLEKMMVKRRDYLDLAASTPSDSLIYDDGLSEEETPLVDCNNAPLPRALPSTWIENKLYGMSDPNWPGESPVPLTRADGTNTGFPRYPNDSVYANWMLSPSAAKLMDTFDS

| EphB4 growth restoration (EphB4) | RET growth restoration (RET) | EGFR (L858R) growth restoration (EGFR (L858R)) | SMILES |
| --- | --- | --- | --- |
| ++ | − | (+) | Fc1cccc(Nc2c(-c3ccccc3)nc3cnccn23)c1 [compound 26, (3-Fluoro-phenyl)-(2-phenyl-imidazo[1,2-a]pyrazin-3-yl)-amine] |
| ++ | − | (+) | COc1cccc(-c2nc3c(C)nccn3c2Nc2cccc(Cl)c2)c1 [compound 48, (3-Chloro-phenyl)-[2-(3-methoxy-phenyl)-8-methyl-imidazo[1,2-a]pyrazin-3-yl]-amine] |
| ++ | − | (+) | Fc1ccc(Nc2c(-c3ccccc3)nc3cnccn23)cc1F [compound 30, (3,4-Difluoro-phenyl)-(2-phenyl-imidazo[1,2-a]pyrazin-3-yl)-amine] |

Further lines, the molecule ahead of its results:

| SMILES | EphB4 growth restoration (EphB4) | RET growth restoration (RET) | EGFR (L858R) growth restoration (EGFR (L858R)) |
| --- | --- | --- | --- |
| CC(C)c1nc2cnccn2c1Nc1cccc(Cl)c1 [compound 12, (3-Chloro-phenyl)-(2-isopropyl-imidazo[1,2-a]pyrazin-3-yl)-amine] | + | − | (+) |
| Nc1ccc(-c2nc3cnccn3c2Nc2cccc(Cl)c2)cc1 [compound 10, [2-(4-Amino-phenyl)-imidazo[1,2-a]pyrazin-3-yl]-(3-chloro-phenyl)-amine] | +++ | − | (+) |
